Patent US9789127B2, “N-acyl-phosphatidyl-ethanolamines and/or mixtures of N-acyl-ethanolamines with phosphatidic acids or lysophosphatidic acids” (HUNZA DI PISTOLESI ELVIRA & C. S.A.S., priority 2003, dated 2017)

Key:
hepatic mitochondria [1] = assay: Functionality of hepatic mitochondria: hepatocellular O2 consumption; format: in vivo, rat; details: rats after 20 day diet treatment
Description: (§1) In the experimental tests, the rats were given a high-calorie, high-triglyceride, high-cholesterol diet. The following parameters were evaluated after twenty days treatment: • 1) effect of the compositions on the lipoperoxide levels in the plasma, liver, brain and heart; • 2) effect of the compositions on variations in body weight; • 3) effect of the compositions on variations in membrane fluidity of ghost erythrocytes and plasma platelets; • 4) effect of the compositions on the functionality of the hepatic mitochondria, evaluated by measuring: a) O2 consumption; b) reduced glutathione; c) the potential of the mitochondrial membranes; • 5) effect of the compositions on plasma levels of total cholesterol and HDL-cholesterol; • 6) effect of the compositions on plasma levels of total triglycerides.
(§2) 80 Male rats weighing 150-200 g each were used. […] The animals were given the same diet as the controls for 20 days, except that 50 mg of NOPE and 25 mg of B.F. (corresponding to ˜75 mg of the preparation described in example 6) replaced the same quantity of olive oil (olive oil used: 4.825%). • 7th group: treated with green tea bioflavones (B.F.). The animals were given the same diet as the controls for 20 days, except that 25 mg of B.F. replaced the same quantity of olive oil (olive oil used: 4.875%). […]

[2] = Experimental tests on rats, 20 day diet treatment: overall assessment of Tables I-IV; format: in vivo, rat; details: oral administration, 20 days
Description: as §1
(§3) 80 Male rats weighing 150-200 g each were used. […] The animals were given the same diet as the controls for 20 days, except that 50 mg of NOPE and 25 mg of B.F. (corresponding to ˜75 mg of the preparation described in example 6) replaced the same quantity of olive oil (olive oil used: 4.825%). • 7th group: treated with green tea bioflavones (B.F.). The animals were given the same diet as the controls for 20 days, except that 25 mg of B.F. replaced the same quantity of olive oil (olive oil used: 4.875%).

hepatic mitochondria [3] = assay: Functionality of hepatic mitochondria: reduced hepatocellular glutathione content; format: in vivo, rat; details: rats after 20 day diet treatment
Description: as §1, §2

[4] = Plasma total cholesterol, HDL cholesterol and triglyceride levels of rats on the diet; format: in vivo, rat; details: rats after 20 day diet treatment
Description: as §1
(§4) 80 Male rats weighing 150-200 g each were used. The animals were divided into 8 groups of 10 animals: • 1st group: control (C); 10 animals (control at time 0) were used as is, and 10 were given a standard high-calorie, high-fat, high-cholesterol diet for 20 days, consisting of: • casein: 20%; mixture of trace elements and mineral salts: 3.5%; mixture of vitamins: 0.1%; choline bitartrate: 0.2%; cellulose: 2%; cholesterol: 0.5%; sodium cholate: 0.25%; saccharose: 58.44%, lard: 10.0% and olive oil: 4.9%. • 2nd group: treated with N-oleoyl-ethanolamine as such (NOE); the animals were given the same diet as the controls for 20 days, except that 50 mg of NOE replaced the same quantity of olive oil (olive oil used: 4.85%). • 3rd group: treated with N-oleoyl-phosphatidylethanolamine prepared as described in example 1 (NOPE); the animals were given the same diet as the controls for 20 days, except that 50 mg of NOPE (prepared as described in example 1) replaced the same quantity of olive oil (olive oil used: 4.85%). • 4th group: treated with N-oleoyl-ethanolamine+phosphatidic acid prepared as described in example 2: (NOE+PA); the animals were given the same diet as the controls for 20 days, except that 400 mg of the preparation described in example 2 (containing ˜50 mg of NOE and 150 mg of PA) replaced the same quantity of olive oil (olive oil used: 4.50%). • 5th group: treated with N-oleoyl-ethanolamine+lysophosphatidic acid prepared as described in example 3: (NOE+LPA); the animals were given the same diet as the controls for 20 days, except that 150 mg of the preparation described in example 3 (containing ˜50 mg of NOE and 100 mg of LPA) replaced the same quantity of olive oil (olive oil used: 4.75%). • 6th group: treated with “phosphobioflavonic complexes” of N-oleoyl-phosphatidylethanolamine and green tea bioflavones (B.F.) prepared as described in example 6 (NOPE+B.F.). The animals were given the same diet as the controls for 20 days, except that 50 mg of NOPE and 25 mg of B.F. (corresponding to ˜75 mg of the preparation described in example 6) replaced the same quantity of olive oil (olive oil used: 4.825%). • 7th group: treated with green tea bioflavones (B.F.). The animals were given the same diet as the controls for 20 days, except that 25 mg of B.F. replaced the same quantity of olive oil (olive oil used: 4.875%).

hepatic mitochondria [5] = assay: Functionality of hepatic mitochondria: mitochondrial membrane potential; format: in vivo, rat; details: control rats at time 0 = 100%; rats after 20 day diet treatment
Description: as §1, §2

ghost erythrocytes = assay: Membrane fluidity of ghost erythrocytes (TMA-DPH fluorescent probe) of rats on a high-calorie, high-fat, high-cholesterol diet; format: in vivo, rat; details: expressed as a % of the control values at time 0; rats after 20 day diet treatment, substance in the diet
Description: as §1, §2

[6] = Variation in body weight of rats on the diet; format: in vivo, rat; details: rats after 20 day diet treatment
Description: as §1, §3

plasma platelets = assay: Membrane fluidity of plasma platelets (TMA-DPH fluorescent probe) of rats on a high-calorie, high-fat, high-cholesterol diet; format: in vivo, rat; details: expressed as a % of the control values at time 0; rats after 20 day diet treatment, substance in the diet
Description: as §1, §2

[7] = Diet treatment tests carried out on man; format: in vivo; details: oral administration
Text: A series of experimental tests on rats and clinical tests on man have been carried out to study the pharmacological and/or dietetic characteristics of the composition of the invention.
In all the diet treatment tests carried out on man, the effects obtainable by orally the formulations claimed by the invention (NAPE; NAE+PA; NAE+LPA; NAPE+B.F. and NAE plus PA and/or LPA+B.F.) always provided highly significant results and advantages, both in preventing biological signs of aging (improvement in mitochondrial activity, better membrane fluidity, improvement in plasma antioxidant defences, and limited weight increase) and improving the clinical parameters tested in relation to prevention of aging, and many of the metabolic disorders associated therewith.

[8] = test system: lipoperoxide levels (malonyldialdehyde, MDA); assay: Lipoperoxide levels (malonyldialdehyde) in plasma, liver, brain and heart of rats on the diet; format: in vivo, rat; details: rats after 20 day diet treatment
Description: as §1, §4
Malonyldialdehyde is assayed in accordance with the procedure described by K. Yagi et al., 1982, in “Lipid Peroxides in Biology and Medicine”, Academic Press, New York, 99.324-340.

In the case of `CCCCCCCC/C=C\CCCCCCCC(=O)NCCO` [NOE, N-oleoyl-ethanolamine], the “Hepatocellular O2 consumption” value (hepatic mitochondria [1]) was 368 ± 52 umoles O2/min per 10^7 cells, the “Statistical significance of the effects of Tables I-IV (membrane fluidity, antioxidant defences, body weight, cholesterol and triglycerides, mitochondria)” value [2] was “no statistically significant benefit” and the Reduced glutathione (hepatic mitochondria [3]) was 36 ± 6 nmoles × 10^6 cells. It also gave an HDL cholesterol [4] of 28.9 ± 2.8 mg/dL, a Total cholesterol [4] of 120.4 ± 12.7 mg/dL and a Total triglycerides [4] of 80.5 ± 6.8 mg/dL. For the same molecule, the Mitochondrial membrane potential (hepatic mitochondria [5]) was 70%, the “Membrane fluidity (ghost erythrocytes)” value (ghost erythrocytes) was 72% and the Body weight [6] was 221 ± 16 gm. The “Membrane fluidity (plasma platelets)” value (plasma platelets) was 70%, the “Benefit in preventing biological signs of aging and improving clinical parameters” value [7] was “no significant benefit” and the “MDA BRAIN” value [8] was 106 ± 7 nmoles of malonyldialdehyde (MDA) per gram of tissue. For the same molecule, the “MDA HEART” value [8] was 44 ± 9 nmoles of malonyldialdehyde (MDA) per gram of tissue, the “MDA LIVER” value [8] was 44.1 ± 8.2 nmoles of malonyldialdehyde (MDA) per gram of tissue and the “MDA PLASMA” value [8] was 5.0 ± 0.6 nmoles of malonyldialdehyde (M.
In the case of “N-oleoyl-phosphatidylethanolamine [NOPE]”, the “Hepatocellular O2 consumption” value (hepatic mitochondria [1]) was 408 ± 62 umoles O2/min per 10^7 cells, the “Statistical significance of the effects of Tables I-IV (membrane fluidity, antioxidant defences, body weight, cholesterol and triglycerides, mitochondria)” value [2] was “always statistically significant” and the Reduced glutathione (hepatic mitochondria [3]) was 41 ± 5 nmoles × 10^6 cells. It also gave an HDL cholesterol [4] of 31.6 ± 3.9 mg/dL, a Total cholesterol [4] of 110.3 ± 10.1 mg/dL and a Total triglycerides [4] of 71.4 ± 8.7 mg/dL. The Mitochondrial membrane potential (hepatic mitochondria [5]) was 81%, the “Membrane fluidity (ghost erythrocytes)” value (ghost erythrocytes) was 84% and the Body weight [6] was 209 ± 18 gm. The “Membrane fluidity (plasma platelets)” value (plasma platelets) was 81%, the “MDA BRAIN” value [8] was 85 ± 9 nmoles of malonyldialdehyde (MDA) per gram of tissue and the “MDA HEART” value [8] was 32 ± 7 nmoles of malonyldialdehyde (MDA) per gram of tissue. The “MDA LIVER” value [8] was 33.1 ± 6.5 nmoles of malonyldialdehyde (MDA) per gram of tissue and the “MDA PLASMA” value [8] was 3.8 ± 0.4 nmoles of malonyldialdehyde (M.
